Test results from PubChem BioAssay (NCI).
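GI50 marks 50% less growth. Definition used: TGI = concentration required for complete inhibition of growth.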

How the values were obtained:
Assay in all cases: DTP human tumour cell line panel, 384-well format
ACHN renal = test system: ACHN renal
U251 glioblastoma = test system: U251 glioblastoma
DU-145 prostate = test system: DU-145 prostate
M14 melanoma = test system: M14 melanoma
A549 NSCLC = test system: A549 NSCLC
EKVX NSCLC = test system: EKVX NSCLC
HS 578T breast = test system: HS 578T breast
SF-295 CNS = test system: SF-295 CNS
NCI-H460 NSCLC = test system: NCI-H460 NSCLC
OVCAR-8 ovarian = test system: OVCAR-8 ovarian
SNB-19 CNS = test system: SNB-19 CNS
SN12C renal = test system: SN12C renal
MDA-MB-468 breast = test system: MDA-MB-468 breast

With `C=CC(=O)Nc1cccc(Oc2nc(Nc3ccc(N4CCN(C)CC4)cc3)nc3ccsc23)c1` as the compound, how does the GI50 (ACHN renal) read?
The GI50 was 1260 nM.

What about the TGI (ACHN renal) of the same compound?
The TGI was 2690 nM.

What about the GI50 (U251 glioblastoma) of the same compound?
Its GI50 is 1650 nM.

What about the TGI (U251 glioblastoma) of the same compound?
The TGI was 3060 nM.

And the GI50 (DU-145 prostate)?
Its GI50 is 1420 nM.

And the TGI (DU-145 prostate)?
The TGI was 3210 nM.

And the GI50 (M14 melanoma)?
The GI50 was 1890 nM.

What about the TGI (M14 melanoma) of the same compound?
The TGI was 3320 nM.

What about the GI50 (A549 NSCLC) of the same compound?
The GI50 was 1640 nM.

And the TGI (A549 NSCLC)?
The TGI was 3500 nM.

And the GI50 (EKVX NSCLC)?
Its GI50 is 1310 nM.

And the TGI (EKVX NSCLC)?
The TGI was 3840 nM.

And the GI50 (HS 578T breast)?
The GI50 was 1450 nM.

What about the TGI (HS 578T breast) of the same compound?
The TGI was 2800 nM.

What about the GI50 (SF-295 CNS) of the same compound?
The GI50 was 5010 nM.

And the TGI (SF-295 CNS)?
Its TGI is 15700 nM.

What about the GI50 (NCI-H460 NSCLC) of the same compound?
Its GI50 is 1620 nM.

And the TGI (NCI-H460 NSCLC)?
The TGI was 3030 nM.

What about the GI50 (OVCAR-8 ovarian) of the same compound?
The GI50 was 1590 nM.

And the TGI (OVCAR-8 ovarian)?
Its TGI is 3000 nM.

What about the GI50 (SNB-19 CNS) of the same compound?
Its GI50 is 1820 nM.

What about the TGI (SNB-19 CNS) of the same compound?
The TGI was 3700 nM.

What about the GI50 (SN12C renal) of the same compound?
Its GI50 is 1350 nM.

What about the TGI (SN12C renal) of the same compound?
The TGI was 2750 nM.

And the GI50 (MDA-MB-468 breast)?
The GI50 was 191 nM.

And the TGI (MDA-MB-468 breast)?
Its TGI is 629 nM.
